# From patent US9247759B2, “Identification of human T2R receptors that respond to bitter compounds that elicit the bitter taste in compositions, and the use thereof in assays to identify compounds that inhibit (block) bitter taste in compositions and use thereof” (SENOMYX, INC., priority 2007, dated 2016)
# Columns and labels:
# hT2R67 = experiment: hT2R panel inhibition, transient HEK293 G16g44, agonist Andrographolide 5 μM; assay type: cell-based, human; settings: compound at 25 μM; receptor activated to EC80 with the corresponding agonist
# Outline: (§1)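 Panel: 22 human T2Rs, individually transient in stable G16g44 cells. Stim: EC80 agonist. Output: % reduction of activity by test cpd.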
# hT2R55 = experiment: hT2R panel inhibition, transient HEK293 G16g44, agonist Cinchonine 150 μM; assay type: cell-based, human; settings: compound at 25 μM; receptor activated to EC80 with the corresponding agonist
# Outline: as §1
# hT2R63 = experiment: hT2R panel inhibition, transient HEK293 G16g44, agonist Caffeine 1 mM or Andrographolide 100 μM; assay type: cell-based, human; settings: compound at 25 μM; receptor activated to EC80 with the corresponding agonist
# Outline: as §1
# hT2R5 = hT2R5 (Homo sapiens (Human), UniProt Q9NYW4); experiment: hT2R panel inhibition, transient HEK293 G16g44, agonist Picoline 10 mM; assay type: cell-based; settings: HEK293, compound at 25 μM; receptor activated to EC80 with the corresponding agonist; read-out: screening result against bitter receptor 5
# Outline: as §1
# hT2R3 = hT2R3 (Homo sapiens (Human), UniProt Q9NYW6); experiment: hT2R panel inhibition, transient HEK293 G16g44, agonist Chloroquine pH6.5 50 μM; assay type: cell-based; settings: HEK293, compound at 25 μM; receptor activated to EC80 with the corresponding agonist; read-out: screening result against bitter receptor 3
# Outline: as §1
# hT2R65 = experiment: hT2R panel inhibition, transient HEK293 G16g44, agonist Oleuropein 1 mM; assay type: cell-based, human; settings: compound at 25 μM; receptor activated to EC80 with the corresponding agonist
# Outline: as §1
# hT2R10 = hT2R10 (Homo sapiens (Human), UniProt Q9NYW0); experiment: hT2R panel inhibition, transient HEK293 G16g44, agonist Strychnine 50 μM; assay type: cell-based; settings: HEK293, read-out: screening result against bitter receptor 10, compound at 25 μM; receptor activated to EC80 with the corresponding agonist
# hT2R14 [1] = target: T1, hT2R14 (Homo sapiens (Human), UniProt Q9NYV8); experiment: hT2R panel inhibition, transient HEK293 G16g44, agonist Aristolochic Acid 2 μM; assay type: cell-based; settings: HEK293, compound at 25 μM; receptor activated to EC80 with the corresponding agonist; read-out: screening result against bitter receptor 14
# Outline: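 Agonist challenge was at EC80, with 0.5 mM andrographolide on hT2R8 and 2 μM aristolochic acid on hT2R14. Inhibition was measured in functional assays in HEK293 cells that stably carry the promiscuous G protein G16g44 and were transiently transfected with the individual receptor.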
# hT2R75 = hT2R75 (Homo sapiens (Human), UniProt P59540); experiment: hT2R panel inhibition, transient HEK293 G16g44, agonist Strychnine 1 μM; assay type: cell-based; settings: HEK293, read-out: screening result against bitter receptor 75, compound at 25 μM; receptor activated to EC80 with the corresponding agonist
# hT2R51 = hT2R51 (Homo sapiens (Human), UniProt P59533); experiment: hT2R panel inhibition, transient HEK293 G16g44, agonist Prop 2.5 μM; assay type: cell-based; settings: HEK293, compound at 25 μM; receptor activated to EC80 with the corresponding agonist; read-out: screening result against bitter receptor 51
# Outline: as §1
# hT2R54 = experiment: hT2R panel inhibition, transient HEK293 G16g44, agonist Ranitidine 5 mM; assay type: cell-based, human; settings: compound at 25 μM; receptor activated to EC80 with the corresponding agonist
# Outline: as §1
# hT2R16 = hT2R16 (Homo sapiens (Human), UniProt Q9NYV7); experiment: hT2R panel inhibition, transient HEK293 G16g44, agonist Salicin 1 mM; assay type: cell-based; settings: HEK293, compound at 25 μM; receptor activated to EC80 with the corresponding agonist; read-out: screening result against bitter receptor 16
# Outline: as §1
# hT2R71 = hT2R71 (Homo sapiens (Human), UniProt P59536); experiment: hT2R panel inhibition, transient HEK293 G16g44, agonist Picric Acid 10 μM; assay type: cell-based; settings: HEK293, compound at 25 μM; receptor activated to EC80 with the corresponding agonist; read-out: screening result against bitter receptor 71
# Outline: as §1
# hT2R7 = hT2R7 (Homo sapiens (Human), UniProt Q9NYW3); experiment: hT2R panel inhibition, transient HEK293 G16g44, agonist Chloroquine pH6.5 10 mM; assay type: cell-based; settings: HEK293, compound at 25 μM; receptor activated to EC80 with the corresponding agonist; read-out: screening result against bitter receptor 7
# Outline: as §1
# hT2R61 = hT2R61 (Homo sapiens (Human), UniProt P59537); experiment: hT2R panel inhibition, transient HEK293 G16g44, agonist Aristolochic Acid 25 nM; assay type: cell-based; settings: HEK293, compound at 25 μM; receptor activated to EC80 with the corresponding agonist; read-out: screening result against bitter receptor 61
# Outline: as §1
# hT2R13 = hT2R13 (Homo sapiens (Human), UniProt Q9NYV9); experiment: hT2R panel inhibition, transient HEK293 G16g44, agonist Oxyphenonium 1 mM; assay type: cell-based; settings: HEK293, compound at 25 μM; receptor activated to EC80 with the corresponding agonist; read-out: screening result against bitter receptor 13
# Experimental: Specifically, in order to evaluate the inhibitory selectivity of the Compound C compound, this compound was tested against 22 human T2Rs which were deorphaned by Senomyx. These receptors and the bitter ligands that activate these human T2Rs are reported in earlier patent applications which are incorporated by reference herein. These 22 human T2Rs are hT2R1, 3, 4, 5, 7, 8, 9, 10, 13, 14, 16, 44, 51, 54, 55, 61, 63, 64, 65, 67, 71 and 75. The amino acid and nucleic acid sequences of all of these T2Rs may be found in these earlier patent applications. These human T2Rs were each individually transiently transfected into HEK293 cells that stably express the promiscuous G protein G16g44 and functional assays were effected using these receptors as disclosed in these same patent applications. […] The ligands were used at EC80 concentration levels. The list of bitter ligands utilized and the tested ligand concentrations are contained in Table 5 of this example.
# Relating to the foregoing, FIG. 5 contains experimental results wherein Compound C was tested with different agonist compounds. The inhibition activity is represented by the reduction of receptor activity in the presence of Compound C. […] These 13 hT2Rs are hT2R3, 7, 10, 14, 16, 44, 51, 55, 61, 63, 64, 65, and 71.
# hT2R64 = hT2R64 (Homo sapiens (Human), UniProt P59538); experiment: hT2R panel inhibition, transient HEK293 G16g44, agonist Aristolochic Acid 1 μM; assay type: cell-based; settings: HEK293, compound at 25 μM; receptor activated to EC80 with the corresponding agonist; read-out: screening result against bitter receptor 64
# Outline: as §1
# hT2R14 [2] = target: T1, hT2R14; experiment: hT2R14 antagonist high-throughput FLIPR assay, stable cell line with G16g44, agonist aristolochic acid; assay type: cell-based; settings: read-out: IC50 on hT2R14 bitter receptor
# Outline: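 Compounds were co-applied with 3 μM aristolochic acid, a dose set to reach 70-80% of maximal hT2R14 activation. Read-out was FLIPR fluorescence in a stable HEK293 line co-expressing hT2R14 and G16g44.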
# hT2R44 = experiment: hT2R panel inhibition, transient HEK293 G16g44, agonist Denatonium 0.5 μM; assay type: cell-based, human; settings: compound at 25 μM; receptor activated to EC80 with the corresponding agonist
# Outline: as §1
# Chain of hT2R75 (P59540 whole entry): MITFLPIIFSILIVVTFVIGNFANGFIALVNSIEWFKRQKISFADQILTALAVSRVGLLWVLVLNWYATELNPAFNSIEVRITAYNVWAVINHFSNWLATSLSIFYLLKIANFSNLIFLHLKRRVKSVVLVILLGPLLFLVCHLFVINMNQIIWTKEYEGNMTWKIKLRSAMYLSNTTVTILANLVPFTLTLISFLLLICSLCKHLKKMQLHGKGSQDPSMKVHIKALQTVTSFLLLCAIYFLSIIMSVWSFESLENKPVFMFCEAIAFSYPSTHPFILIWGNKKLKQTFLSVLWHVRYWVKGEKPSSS
# Chain of hT2R51 (P59533 whole entry): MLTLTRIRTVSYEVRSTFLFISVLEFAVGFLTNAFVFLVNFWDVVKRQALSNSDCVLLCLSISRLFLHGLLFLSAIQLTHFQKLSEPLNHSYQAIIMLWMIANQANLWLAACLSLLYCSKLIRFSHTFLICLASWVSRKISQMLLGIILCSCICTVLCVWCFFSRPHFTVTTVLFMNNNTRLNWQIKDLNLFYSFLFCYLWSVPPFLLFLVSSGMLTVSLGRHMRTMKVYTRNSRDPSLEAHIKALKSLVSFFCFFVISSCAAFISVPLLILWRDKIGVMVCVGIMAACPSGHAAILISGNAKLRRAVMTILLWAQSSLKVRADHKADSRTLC
# Chain of hT2R13 (Q9NYV9 whole entry): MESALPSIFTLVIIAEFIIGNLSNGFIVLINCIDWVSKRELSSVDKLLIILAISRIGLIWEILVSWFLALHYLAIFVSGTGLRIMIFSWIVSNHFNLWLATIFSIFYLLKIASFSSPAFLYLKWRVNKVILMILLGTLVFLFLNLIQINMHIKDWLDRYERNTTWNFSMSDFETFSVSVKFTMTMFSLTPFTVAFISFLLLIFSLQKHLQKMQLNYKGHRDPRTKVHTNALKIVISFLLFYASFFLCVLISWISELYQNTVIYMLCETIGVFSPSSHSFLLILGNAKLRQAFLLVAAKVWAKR
# Chain of hT2R61 (P59537 whole entry): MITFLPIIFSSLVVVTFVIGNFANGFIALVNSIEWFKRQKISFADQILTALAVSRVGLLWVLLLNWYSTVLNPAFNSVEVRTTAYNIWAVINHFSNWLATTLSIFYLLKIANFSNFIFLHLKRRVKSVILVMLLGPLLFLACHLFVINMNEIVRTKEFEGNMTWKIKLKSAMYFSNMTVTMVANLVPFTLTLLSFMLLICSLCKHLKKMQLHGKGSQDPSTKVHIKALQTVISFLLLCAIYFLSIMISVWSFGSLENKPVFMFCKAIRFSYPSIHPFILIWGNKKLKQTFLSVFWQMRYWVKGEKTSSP
# Chain of hT2R16 (Q9NYV7 whole entry): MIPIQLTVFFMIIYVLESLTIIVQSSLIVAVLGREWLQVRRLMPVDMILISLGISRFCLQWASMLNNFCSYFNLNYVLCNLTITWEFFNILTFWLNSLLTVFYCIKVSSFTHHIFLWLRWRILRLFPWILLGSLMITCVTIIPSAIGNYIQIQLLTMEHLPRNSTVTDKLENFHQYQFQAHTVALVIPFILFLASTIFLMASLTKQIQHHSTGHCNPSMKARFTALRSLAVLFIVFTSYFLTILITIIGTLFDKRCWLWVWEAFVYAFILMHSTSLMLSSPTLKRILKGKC
# Chain of hT2R71 (P59536 whole entry): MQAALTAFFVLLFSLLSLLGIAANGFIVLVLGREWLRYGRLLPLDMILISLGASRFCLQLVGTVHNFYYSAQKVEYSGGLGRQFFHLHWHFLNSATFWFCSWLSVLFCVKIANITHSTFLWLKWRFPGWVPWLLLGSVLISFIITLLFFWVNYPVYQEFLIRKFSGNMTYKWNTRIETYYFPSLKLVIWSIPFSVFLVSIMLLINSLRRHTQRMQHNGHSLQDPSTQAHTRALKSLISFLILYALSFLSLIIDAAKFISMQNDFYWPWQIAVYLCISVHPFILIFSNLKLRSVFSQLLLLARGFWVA
# T1 sequence (Q9NYV8 whole entry): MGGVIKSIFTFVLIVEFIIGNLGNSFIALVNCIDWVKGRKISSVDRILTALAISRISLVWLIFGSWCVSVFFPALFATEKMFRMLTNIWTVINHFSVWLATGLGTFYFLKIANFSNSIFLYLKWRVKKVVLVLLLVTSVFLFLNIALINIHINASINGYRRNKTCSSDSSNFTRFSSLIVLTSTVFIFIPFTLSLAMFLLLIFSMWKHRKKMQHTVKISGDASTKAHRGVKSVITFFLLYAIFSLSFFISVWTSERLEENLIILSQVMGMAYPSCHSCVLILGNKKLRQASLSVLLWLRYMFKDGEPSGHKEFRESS
# Chain of hT2R7 (Q9NYW3 whole entry): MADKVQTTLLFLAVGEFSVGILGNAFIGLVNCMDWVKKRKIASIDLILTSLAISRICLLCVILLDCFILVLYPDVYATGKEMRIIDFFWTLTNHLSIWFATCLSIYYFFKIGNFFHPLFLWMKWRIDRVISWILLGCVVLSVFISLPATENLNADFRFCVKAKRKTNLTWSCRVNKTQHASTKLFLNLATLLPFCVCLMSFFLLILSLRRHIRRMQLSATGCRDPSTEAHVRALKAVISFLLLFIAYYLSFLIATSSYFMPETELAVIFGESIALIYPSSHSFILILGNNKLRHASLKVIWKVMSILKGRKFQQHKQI
# Chain of hT2R64 (P59538 whole entry): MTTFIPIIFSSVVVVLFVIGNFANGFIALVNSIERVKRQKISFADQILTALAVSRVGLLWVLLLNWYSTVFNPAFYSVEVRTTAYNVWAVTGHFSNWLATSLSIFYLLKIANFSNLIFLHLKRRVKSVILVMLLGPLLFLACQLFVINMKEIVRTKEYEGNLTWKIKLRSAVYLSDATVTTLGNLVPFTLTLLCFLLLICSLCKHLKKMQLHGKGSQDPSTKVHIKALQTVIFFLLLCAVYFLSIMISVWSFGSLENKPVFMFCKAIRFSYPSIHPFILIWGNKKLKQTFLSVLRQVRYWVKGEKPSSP
# Chain of hT2R3 (Q9NYW6 whole entry): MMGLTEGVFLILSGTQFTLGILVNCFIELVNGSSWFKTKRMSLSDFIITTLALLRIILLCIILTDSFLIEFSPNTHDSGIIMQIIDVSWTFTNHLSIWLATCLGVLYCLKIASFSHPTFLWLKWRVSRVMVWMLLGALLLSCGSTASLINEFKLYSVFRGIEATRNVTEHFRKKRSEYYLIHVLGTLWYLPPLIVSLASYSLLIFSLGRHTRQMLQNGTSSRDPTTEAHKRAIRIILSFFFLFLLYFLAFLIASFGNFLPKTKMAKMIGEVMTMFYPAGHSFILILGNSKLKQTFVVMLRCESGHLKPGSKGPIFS
# Chain of hT2R5 (Q9NYW4 whole entry): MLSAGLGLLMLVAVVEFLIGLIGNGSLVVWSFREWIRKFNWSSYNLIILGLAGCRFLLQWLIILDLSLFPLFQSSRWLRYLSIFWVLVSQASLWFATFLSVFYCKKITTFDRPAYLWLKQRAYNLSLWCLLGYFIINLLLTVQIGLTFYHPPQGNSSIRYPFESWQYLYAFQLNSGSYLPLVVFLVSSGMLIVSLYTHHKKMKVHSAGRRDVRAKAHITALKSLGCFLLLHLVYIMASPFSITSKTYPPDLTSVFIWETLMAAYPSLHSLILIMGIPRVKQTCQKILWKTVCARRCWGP
# Chain of hT2R10 (Q9NYW0 whole entry): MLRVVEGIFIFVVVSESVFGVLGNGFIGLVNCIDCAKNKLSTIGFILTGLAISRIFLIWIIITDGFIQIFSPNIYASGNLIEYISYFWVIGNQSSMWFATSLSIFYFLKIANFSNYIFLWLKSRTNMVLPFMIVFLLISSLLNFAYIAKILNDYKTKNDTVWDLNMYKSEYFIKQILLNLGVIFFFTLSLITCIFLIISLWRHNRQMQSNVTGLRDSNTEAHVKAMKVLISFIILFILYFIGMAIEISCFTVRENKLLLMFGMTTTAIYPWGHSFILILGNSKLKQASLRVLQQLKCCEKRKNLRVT
SMILES,screening result against bitter receptor 67 (hT2R67),screening result against bitter receptor 55 (hT2R55),screening result against bitter receptor 63 (hT2R63),inhibition at 25 µM (hT2R5),inhibition at 25 µM (hT2R3),screening result against bitter receptor 65 (hT2R65),inhibition at 25 µM (hT2R10),inhibition at 25 µM (hT2R14 [1]),inhibition at 25 µM (hT2R75),inhibition at 25 µM (hT2R51),screening result against bitter receptor 54 (hT2R54),inhibition at 25 µM (hT2R16),inhibition at 25 µM (hT2R71),inhibition at 25 µM (hT2R7),inhibition at 25 µM (hT2R61),inhibition at 25 µM (hT2R13),inhibition at 25 µM (hT2R64),IC50 (hT2R14 [2]),screening result against bitter receptor 44 (hT2R44)
"CCc1ccc(CN(Cc2ccccc2)S(=O)(=O)c2ccc(C(=O)O)cc2)cc1 [Example 5-85, 4-(N-benzyl-N-(4-ethylbenzyl)sulfamoyl)benzoic acid]",++ (40% to 60% inhibition = ++),+++ (60% to 80% inhibition = +++),+++ (60% to 80% inhibition = +++),20 to 40%,40 to 60%,+++ (60% to 80% inhibition = +++),40 to 60%,> 80%,20 to 40%,20 to 40%,+++ (60% to 80% inhibition = +++),40 to 60%,20 to 40%,20 to 40%,> 80%,20 to 40%,–,–,–
"O=C(O)c1ccc(S(=O)(=O)N(Cc2ccccc2)Cc2ccccc2)cc1 [Example 5-28, 4-(N,N-dibenzylsulfamoyl)benzoic acid]",+ (20% to 40% inhibition = +),++++ (80% or greater inhibition = ++++),++++ (80% or greater inhibition = ++++),–,–,–,–,> 80%,20 to 40%,40 to 60%,+ (20% to 40% inhibition = +),20 to 40%,40 to 60%,–,40 to 60%,20 to 40%,> 80%,7.74 µM,+ (20% to 40% inhibition = +)
"O=C(O)c1ccc(S(=O)(=O)N(Cc2ccccc2)Cc2ccco2)cc1 [Example 5-5, 4-(N-benzyl-N-(furan-2-ylmethyl)sulfamoyl)benzoic acid]",+ (20% to 40% inhibition = +),++++ (80% or greater inhibition = ++++),++++ (80% or greater inhibition = ++++),20 to 40%,40 to 60%,+ (20% to 40% inhibition = +),20 to 40%,> 80%,20 to 40%,20 to 40%,+ (20% to 40% inhibition = +),40 to 60%,60 to 80%,40 to 60%,> 80%,20 to 40%,60 to 80%,4.6 µM,++ (40% to 60% inhibition = ++)
